biological target: T1, Thrombopoietin receptor (Homo sapiens, UniProt P40238); assay: (§1) Agonist activity as induced proliferation in Ba/F3-hTpoR murine lymphocyte expressing human TPOR; format: functional
T1 sequence (P40238 whole entry): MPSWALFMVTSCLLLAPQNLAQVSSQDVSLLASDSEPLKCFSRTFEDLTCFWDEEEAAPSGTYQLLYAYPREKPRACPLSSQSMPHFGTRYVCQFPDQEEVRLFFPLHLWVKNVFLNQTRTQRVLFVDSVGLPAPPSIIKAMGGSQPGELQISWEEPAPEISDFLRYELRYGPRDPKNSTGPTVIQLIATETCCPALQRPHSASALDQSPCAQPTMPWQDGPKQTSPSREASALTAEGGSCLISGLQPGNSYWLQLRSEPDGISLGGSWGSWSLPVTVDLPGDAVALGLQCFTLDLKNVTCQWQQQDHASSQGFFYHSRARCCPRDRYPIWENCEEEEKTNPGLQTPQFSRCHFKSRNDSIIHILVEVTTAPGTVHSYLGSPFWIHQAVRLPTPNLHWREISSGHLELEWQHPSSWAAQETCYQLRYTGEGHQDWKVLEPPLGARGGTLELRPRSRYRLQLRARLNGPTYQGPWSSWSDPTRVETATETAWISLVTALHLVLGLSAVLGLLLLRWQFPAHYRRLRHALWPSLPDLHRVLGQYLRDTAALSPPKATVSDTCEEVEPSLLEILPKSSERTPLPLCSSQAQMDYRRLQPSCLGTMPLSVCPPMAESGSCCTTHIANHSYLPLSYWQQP

EC50	Compound
Not Active	Cc1ccc(-c2cccc(-c3nc4c(/C=C5\SC(=S)NC5=O)cccc4[nH]3)n2)cc1C
Not Active	C/C(=C\c1cccc2[nH]c(-c3cccc(-c4ccc(C)c(C)c4)n3)nc12)C(=O)O
Not Active	CCOC(=O)/C(C)=C/c1ccc2[nH]c(-c3cccc(-c4ccc(C(C)(C)C)cc4)n3)nc2c1
Not Active	Cc1ccc(-c2cccc(-c3nc4c(C=C(C(=O)O)C(=O)O)cccc4[nH]3)n2)cc1C

biological target: T2, Thrombopoietin receptor (Homo sapiens) (UniProt P40238); assay: as §1; format: functional
T2 sequence (whole entry): T1 sequence (P40238 whole entry)

Efficacy	Compound
137%	CC(C)(C)c1ccc(-c2cccc(-c3nc4cc(/C=C5\SC(=S)NC5=O)ccc4[nH]3)c2)cc1
134%	CC(C)(C)c1ccc(-c2cccc(-c3nc4cc(/C=C5\SC(=S)NC5=O)ccc4[nH]3)c2O)cc1
117%	Cc1ccc(-c2ccc(-c3nc4cc(/C=C5\SC(=S)NC5=O)ccc4[nH]3)s2)cc1C
13%	CC(C)(C)c1ccc(-c2cccc(-c3nc4cc(CC(C(=O)O)C(=O)O)ccc4[nH]3)n2)cc1
19%	O=C1NC(=S)S/C1=C\c1ccc2[nH]c(-c3cccc(-c4ccc(Cl)c(Cl)c4)n3)nc2c1
90%	CC(C)(C)c1ccc(-c2cccc(-c3nc4cc(/C=C5\SC(=S)NC5=O)ccc4[nH]3)n2)cc1
73%	Cc1ccc(-c2cccc(-c3nc4cc(/C=C5\SC(=S)NC5=O)ccc4[nH]3)n2)cc1C
123%	Cc1ccc(-c2csc(-c3nc4cc(/C=C5\SC(=S)NC5=O)ccc4[nH]3)c2)cc1C
109%	C/C(=C\c1ccc2[nH]c(-c3cccc(-c4ccc(C(C)(C)C)cc4)n3)nc2c1)C(=O)O
142%	CC(C)(C)c1ccc(-c2ccc(-c3nc4cc(/C=C5\SC(=S)NC5=O)ccc4[nH]3)o2)cc1
